From US10472394B2, “Cyclosporine analogue mixtures and their use as immunomodulating agents” (Aurinia Pharmaceuticals Inc., priority 2001, dated 2019)
≈ marks a conversion by molar mass, not a printed value.

Columns and labels:
[1] = system: production of intracellular cytokines by T cells; experiment: whole blood assay: intracellular cytokine production by T cells; assay type: cell-based, cynomolgous monkeys; conditions: mitogen stimulated
Description: (§1) Lymphocyte proliferation was assessed by tritium-labeled thymidine incorporation and by flow-cytometric analysis of expression of proliferating cell nuclear antigen (PCNA) on cells in SG2M phase. Flow cytometry was also used to assess production of intracellular cytokines by T cells and expression of T lymphocyte activation antigens.

[2] = system: calcineurin phosphatase activity; experiment: calcineurin (CN) inhibition assay; assay type: biochemical; conditions: FIG. 11; ISATX247 isomer mixture
Excerpt: The use of cyclosporine derivatives, a class of cyclic polypeptides produced by the fungus Tolypocladium inflatum Gams, is increasing in immunosuppressive therapy due to their preferential effects on T-cell mediated reactions. […] This action is primarily mediated through cyclosporine A-induced inhibition of calcineurin, a phosphatase enzyme found in the cytoplasm of cells (Schreiber and Crabtree, 1992).

[3] = pharmacokinetics in the rabbit model (i.v.); assay type: in vivo; conditions: for Area under the curve, mean ± SD / Cmax, mean ± SD: 10 mg/kg/day i.v.
Description: (§3) On Days 1 and 7, blood samples were collected prior to drug administration and at 0.5, 1, 2, 4, 8, 12, 18, and 24 hours post-dose to generate a pharmacokinetic profile. Other evaluated parameters included clinical observations, body weight, food consumption, hematology, clinical chemistry, gross pathology, and histopathological examination of selected tissues/organs.
Blood samples were analyzed via high performance liquid chromatography coupled with mass spectrometry (LCMS).

Mouse Islet Allografts = experiment: islet cell allotransplantation in diabetic mice
Excerpt: Blood glucose was monitored daily until the time of graft failure, as defined by a glucose level greater than 17 mmol/L on two consecutive days.

[4] = system: bacterial reverse mutation; experiment: in vitro bacterial reverse mutation assay; assay type: cell-based
Excerpt: (§2) No carcinogenicity studies have been completed to date.

[5] = system: collagen-induced arthritis; experiment: collagen-induced arthritis model; assay type: in vivo, mouse
Description: Male DBA/1 Lac J mice, kept under virus antibody free conditions, were immunized subcutaneously at 8 to 10 weeks of age with 100 microgram of chick type II collagen, emulsified in Freund's complete adjuvant. […] Animals assigned to the treatment protocol (12/group) were dosed starting on the day of disease onset (˜Day 28) until sacrifice on Day 38.
Evaluated parameters included mortality, serum creatinine, histology, and outcome assessments, such as clinical scoring (visual), hind paw swelling, histological scoring, erosion scoring, and immunohistochemistry.
Erosion scoring was done in a blinded manner by examining sagittal sections of the proximal interphalangeal (PIP) joint of the middle digit for the presence or absence of erosions (defined as demarcated defects in cartilage or bone filled with inflammatory tissue). This approach allowed for comparisons of the same joint.

Transplanted Rat Hearts = experiment: rat heart transplant model (heterotopic, Wistar Furth to Lewis); assay type: in vivo
Excerpt: If graft dysfunction was noted during the 30-day post-transplantation period, the animal was sacrificed. If the animal survived longer than 30 days post-transplantation, the test and control articles were discontinued and the animal was allowed to continue until graft dysfunction or up to 100 days post-transplantation.

[6] = system: antigen-induced arthritis; experiment: antigen-induced arthritis model; assay type: in vivo, rabbit
Description: New Zealand White rabbits, maintained under specific pathogen free conditions, were immunized with 10 mg of ovalbumin in saline emulsified with Freund's complete adjuvant that was given intramuscularly and subcutaneously into several sites in the nape of the neck. Fourteen days later, all animals started receiving 2 daily intra-articular injections of 5 mg ovalbumin and 65 ng of human recombinant transforming growth factor 2 in saline.
Animals assigned to the treatment protocol (8/group) were dosed starting on the day of disease onset (˜Day 28) until sacrifice on Day 42.
Evaluated parameters included mortality, body weight, serum creatinine, histology, and outcome assessments such as knee joint swelling, synovial fluid counts, gross postmortem analysis, and histology.

micronucleus = experiment: in vivo rat micronucleus assay
Excerpt: as §2

[7] = system: T lymphocyte activation antigens; experiment: whole blood assay: expression of T lymphocyte activation antigens; assay type: cell-based, cynomolgous monkeys; conditions: mitogen stimulated
Description: as §1

[8] = repeated-dose oral toxicity studies; assay type: in vivo, rats, dogs, and primates
lymphocyte proliferation = experiment: whole blood assay: lymphocyte proliferation; assay type: cell-based, cynomolgous monkeys; conditions: mitogen stimulated
Description: as §1

chromosome aberration = experiment: in vitro chromosome aberration assay; assay type: cell-based
Excerpt: as §2

[9] = reproductive toxicity studies; assay type: in vivo, pregnant rats and rabbits
Excerpt: as §2

[10] = 30-day toxicokinetic/toxicity study in the rabbit model
Description: as §3

C=C/C=C/C[C@@H](C)[C@@H](O)[C@H]1C(=O)N[C@@H](CC)C(=O)N(C)CC(=O)N(C)[C@@H](CC(C)C)C(=O)N[C@@H](C(C)C)C(=O)N(C)[C@@H](CC(C)C)C(=O)N[C@@H](C)C(=O)N[C@H](C)C(=O)N(C)[C@@H](CC(C)C)C(=O)N(C)[C@@H](CC(C)C)C(=O)N(C)[C@@H](C(C)C)C(=O)N1C [ISATX247]
EC50, IFN-production [1]: 0.10267 µg/mL (≈ 0.0845 µM) | EC50, IL-2 production [1]: 0.10335 µg/mL (≈ 0.0851 µM) | EC50, TNF-production [1]: 0.09058 µg/mL (≈ 0.0746 µM) | potency of inhibition of calcineurin phosphatase activity compared to cyclosporine A (as determined by IC50) [2]: ≤ 3 fold | pharmacokinetic parameters in female rabbits compared with male rabbits ([3]; 10 mg/kg/day, exception: maximum concentration on Day 7): not significantly different | pharmacokinetic parameters compared with cyclosporine A ([3]; male rabbits, 10 mg/kg/day): no statistically significantly differences | Area under the curve, mean ± SD ([3]; male rabbits, Day 1): 5659 ± 1309 ng·h/mL | Cmax, mean ± SD ([3]; male rabbits, Day 1): 1915 ± 149 ng/mL | Area under the curve, mean ± SD ([3]; male rabbits, Day 7): 5697 ± 1373 ng·h/mL | Cmax, mean ± SD ([3]; male rabbits, Day 7): 1959 ± 470 ng/mL | Mean Survival (Mouse Islet Allografts; 1.75 mg/kg/day i.p.): 18.7 | Mean Survival (Mouse Islet Allografts; 10 mg/kg/day i.p.): 19.2 | Mean Survival (Mouse Islet Allografts; 25 mg/kg/day i.p.): 46.4 | toxicity compared with cyclosporine A as the dose level increased (Mouse Islet Allografts; especially apparent at 25 mg/kg/day): less toxic than cyclosporine A | mutagenic activity [4]: does not exhibit mutagenic activity | negative erosion scores compared to vehicle group ([5]; 250 μg/mouse i.p.): higher negative erosion scores | development of joint erosions (PIP joints) ([5]; 500 μg/mouse): significantly prevent | negative erosion scores compared to vehicle group ([5]; 500 μg/mouse i.p.): significantly higher | increase of survival time over Cyclosporine A (Transplanted Rat Hearts; 1.75 mg/kg/day): approximately 3 fold | graft function after discontinuation of dosing (Transplanted Rat Hearts; 100 days post-transplant (70 days post discontinuation of dosing)): still had functioning grafts at 100 days post-transplant | synovial fluid counts ([6]; prevention protocol): significant reductions | synovial histopathological scores compared to vehicle control ([6]; prevention protocol, after 28 days of therapy, s.c.): significant decrease | macroscopic arthritis score ([6]; rabbit, in vivo): significant reduction | potency compared with cyclosporine A in treatment and prevention of arthritis ([6]; rabbit, in vivo): equivalent or potentially more potent than cyclosporine A | synovial histopathological scores of animals with established arthritis compared to vehicle controls ([6]; treatment protocol, 14 days of treatment): Significant amelioration | mutagenic activity (micronucleus): does not exhibit mutagenic activity | EC50, CD 11a expression [7]: 0.2044 µg/mL (≈ 0.168 µM) | EC50, CD 25 expression [7]: 0.121 µg/mL (≈ 0.0996 µM) | EC50, CD 71 expression [7]: 0.14984 µg/mL (≈ 0.123 µM) | EC50, CD 95 expression [7]: 0.12998 µg/mL (≈ 0.107 µM) | EC50, CD 154 expression [7]: 0.16087 µg/mL (≈ 0.132 µM) | only toxicological effect noted in all species [8]: diarrhea/loose feces | tolerability ([8]; rats, dogs, primates): well-tolerated | EC50, 3H-thymidine uptake (lymphocyte proliferation): 0.16054 µg/mL (≈ 0.132 µM) | EC50, PCNA expression (lymphocyte proliferation; flow cytometry): 0.19772 µg/mL (≈ 0.163 µM) | mutagenic activity (chromosome aberration): does not exhibit mutagenic activity | embryotoxicity ([9]; at doses that resulted in maternal toxicity): corresponding embryotoxicity was observed | treatment-related malformations or alterations ([9]; pregnant rats and rabbits): no treatment-related malformations or alterations | examination of organs ([10]; 5 mg/kg): no significant abnormalities | examination of organs ([10]; 10 mg/kg): no significant abnormalities | increase in serum creatinine levels ([10]; 15 mg/kg/day): did not result in any significant increase | examination of organs ([10]; 3 female rabbits that completed the study, 15 mg/kg): No changes | Percent Change in Serum Creatine Levels Over Baseline ([10]; male rabbits, 10 mg/kg, Day 15): +1% | Percent Change in Serum Creatine Levels Over Baseline ([10]; male rabbits, 10 mg/kg, Day 30): +10% | examination of organs: spermatogenesis ([10]; male rabbits, 15 mg/kg): a decrease in spermatogenesis | Percent Change in Serum Creatine Levels Over Baseline ([10]; male rabbits, 15 mg/kg, Day 15): −19% | Percent Change in Serum Creatine Levels Over Baseline ([10]; male rabbits, 15 mg/kg, Day 30): −11% | hematological parameters ([10]; rabbit, in vivo): No significant changes
